Reference: patent publication US20230109717A1 (GAIA BioMedicine Inc., priority 2020, published 2023)
Entries after “also recorded” stand apart in the source; their conditions may differ.

What was measured:
highly active NK cells [1] = test: Viability of freeze-thawed highly active NK cells (7-AAD staining, flow cytometry, FlowJo)
Procedure: The highly activated NK cells (1×10^5 cells/well) thawed under each condition were centrifuged on a 96-well plate (IWAKI, 4870-800SP), the supernatant was removed, and then a 7-amino-actinomycin D (7-AAD) solution diluted with PBS (Beckman Coulter, A 07704) was added to the cells to suspend them, and the suspension was incubated at room temperature (room temperature means 15 to 25° C., the same shall apply in the following experiments) for 20 minutes. The stained cells were measured by using a flow cytometer (BD LSR Fortessa, BD Biosciences).
The NK cells frozen for 48 hours or longer were thawed in a water bath at 37° C., and 1×10^5 cells were dispensed on a 96-well plate (IWAKI) immediately after the thawing. […] The cells dispensed immediately after thawing were centrifuged immediately after they were dispensed, and the cells of the other four groups were centrifuged after incubation of 3 hours, measurement was performed by the method for staining with 7-AAD described above, and the results were analyzed with the FlowJo software (FLOWJO, LLC) to calculate viable cell rates.
The NK cells frozen for 48 hours or longer were thawed at 37° C. in a water bath, and then 1×10^5 of the cells were dispensed on a 96-well plate immediately after the thawing. […] The cells dispensed immediately after thawing were centrifuged immediately after they were dispensed, and the cells of the other four groups were centrifuged after incubation of 3 hours, measurement was performed by the method for staining with 7-AAD described above, and the results were analyzed with the FlowJo software (FLOWJO, LLC) to calculate viable cell rates.
Then, measurement was performed by the method for staining with 7-AAD described above, and the results were analyzed with the FlowJo software. […] Then, measurement was performed by the method for staining with 7-AAD described above, and the results were analyzed with the FlowJo software. (8-3) The experiment was performed in the same manner as in (8-1), but (1) PBS, (2) Plasma-Lyte A, (3) Plasma-Lyte A containing 27.7 mEq/L of lactic acid (Nacalai Tesque, 20006-62), (4) Plasma-Lyte A containing 48.84 mg/L of MgSO4.7H2O (Nacalai Tesque, 21002-85), (5) Lactoringer, (6) Veen-F (Fuso Pharma), (7) Solita-T1 (AY Pharmaceuticals), (8) Solita-T3 (AY Pharmaceuticals), (9) 5% glucose injection solution (Terumo), and (10) RPMI medium were used as the solvents for dilution of thawed cells, and the cells were incubated at 37° C. for 3 hours. In the case of (3), lactic acid was added at the same concentration as the lactate concentration in Lactoringer, and neutrality of the solution was confirmed with litmus test paper. In the case of (4), MgSO4 was added at the same concentration as the MgSO4 concentration in HBSS. Measurement was then performed by the method for staining with 7-AAD described above, and the results were analyzed with the FlowJo software. (8-4) The experiment was performed in the same manner as in (8-2), but the cells were treated by using (1) PBS, (2) Plasma-Lyte A, (3) saline (OTSUKA NORMAL SALINE, Otsuka Pharmaceutical), (4) Bicanate (Otsuka Pharmaceutical), and (5) Solacet F (Terumo) as the solvents for dilution of thawed cells. Measurement was then performed by the method for staining with 7-AAD described above, and the results were analyzed with the FlowJo software. […] Immediately after completely thawed, the cells were diluted 10-fold in (1) Plasma-Lyte A, (2) saline, (3) RPMI 1640 medium, (4) Lactoringer, (5) 0.423 mM CaCl2 prepared in Plasma-Lyte A, and (6) 1.36 mM CaCl2, and left to stand at 37° C. for 3 hours. The CaCl2 concentration of (5) was the same as that in the RPMI 1640 medium, and the CaCl2 concentration of (6) was the same as that in Lactoringer. Measurement was then performed by the method for staining with 7-AAD described above, and the results were analyzed with the FlowJo software.

highly active NK cells [2] = test: Viable cell count and recovery rate of highly active NK cells after thawing, based on cell number at freezing; parameters: species or system human
Procedure: After the thawing, all the dilution and incubation operations were performed on a low-absorption 6-well plate.
The cells of the groups diluted in the media were incubated overnight at 37° C. under 5% CO2, and then the numbers of viable cells were counted. The experimental conditions are summarized below.
The NK cells obtained by the collection method 1 were suspended in PBS, and incubated at room temperature for 1 hour. The NK cells obtained by the collection method 2 were suspended in (1) the KBM501 medium, (2) KBM501 medium containing 30 μM 4-phenylbutyric acid, (3) KBM501 medium containing 30 μM tauroursodeoxycholic acid dihydrate (TUDCA, Tokyo Kasei Kogyo, T1567), and (4) KBM501 medium containing 30 μM 4-phenylbutyric acid and 30 μM TUDCA, and incubated at 37° C. for 2 hours under 5% CO2. […] After 1 hour, the cells were gently suspended, and number of viable cells was counted. After another 5-fold dilution in the KBM501 medium and incubation at 37° C. for 2 hours under 5% CO2, number of viable cells was counted, and the recovery rate based on the number of cells at the time of freezing was calculated.
(§1) After 1 and 3 hours, the cells were gently suspended, and viable cells were counted. In addition, after 1 hour, the cells were diluted 5-fold in the KBM501 medium, and incubated at 37° C. for 2 hours under 5% CO2, and viable cell were counted. Recovery rate of viable cells after the thawing based on the cell number at the time of freezing was calculated using the number of viable cells at each time point.
as §1, with “on the basis of” for “using”, “point after the thawing.” for “point.”

K562 cells = test: Cytotoxic activity rate (% Lysis) of freeze-thawed highly active NK cells against K562 cells; type: cell-based; settings: Exmp. 7, collect. method 2, pretreatment KBM + 2.4% DMSO 2 h
Procedure: Cytotoxic activity can be expressed as the percentage of target cells killed by effector cells, and is calculated in accordance with the following equation.
(Cell death observed in co-culture with effector cells−Spontaneous cell death (negative control))/(Maximum cell death (positive control)−Spontaneous cell death (negative control))×100
For the measurement of cytotoxic activity, a group of the K562 cells reacted with the NK cells, a group consisting solely of the K562 cells as a negative control, and a group of the K562 cells fixed with 10% formalin as a positive control were prepared.
After incubation for the times indicated for the groups, the cells were collected, and prepared at a density of 2×10^6 cells/mL in 10% FBS/RPMI 1640.
The K562 cells (human chronic myelogenous leukemia cell line) were suspended in serum-free RPMI 1640 medium, stained with PKH26 Red Fluorescent Cell Linker Kit (Sigma, PKH26GL-1KT), and finally prepared at a density of 2×10^6 cells/mL in 10% FBS/RPMI 1640.
The NK cells and K562 cells were added and mixed in wells of 96-well plate (IWAKI, 4870-800SP) at a cell ratio of 1:1, and allowed to react at 37° C. for 2 hours under 5% CO2. After the reaction, the plate was centrifuged (500×g, 5 minutes), and the supernatant was removed. Then, a 7-AAD solution diluted with PBS was added to the cells to suspend the cells, and the suspension was incubated at room temperature for 20 minutes. […]
For the measurement of cytotoxic activity, a group of the NK cells reacted with the K562 cells, a group solely consisting of the K562 cells as a negative control, and a group of the K562 cells fixed with 10% formalin as a positive control were prepared.
The cells were thawed and diluted by the method described above, and a necessary amount of the cells were taken on the basis of the number of viable cells at the time of freezing, and then prepared at a density of 2×10^6 cells/mL in 10% FBS/RPMI 1640.
The K562 cells were suspended in serum-free RPMI 1640 medium, stained with PKH26 Red Fluorescent Cell Linker Kit, and then prepared at a density of 2×10^6 cells/mL in 10% FBS/RPMI 1640. […]
For the measurement of cytotoxic activity, a group of NK cells reacted with K562 cells, a group of K562 cells only as a negative control, and a group of K562 cells fixed with 10% formalin as a positive control were prepared. […]
(9-2) Cytotoxic activity was measured in the same manner as described in the section of (9-1), but after thawing and dilution, the cells were left to stand for up to 6 hours, and cytotoxic activity was measured by the method described in the section b) mentioned above at the time points of 2, 5, and 6 hours. In detail, the NK cells and K562 cells were added to each well of a 96-well plate (IWAKI, 4870-800SP) at a cell ratio of 1:1, mixed, and then allowed to react at 37° C. for 2 hours under 5% CO2.

highly active NK cells [3] = test: Optical microscope observation of highly active NK cells after freeze-thawing; type: cell-based, human; settings: additive in KBM501 medium used for 10-fold dilution after thawing; 37° C. 3 hours (or 4° C. 3 hours then 37° C. 3 hours); cells washed with PBS
Procedure: The NK cells frozen for 48 hours or longer were thawed at 37° C. in a water bath, then diluted 10-fold in the solvents mentioned below, left to stand at the temperatures for the times mentioned below, then observed and photographed under an optical microscope.
<1> Diluted in the KBM501 medium, and left to stand at 37° C. for 3 hours. <2> Diluted in the KBM501 medium containing Z-Vad, and left to stand at 37° C. for 3 hours. <3> Diluted in the KBM501 medium containing methylprednisolone, and left to stand at 37° C. for 3 hours. <4> Diluted in the KBM501 medium containing dexamethasone, and left to stand at 37° C. for 3 hours. <5> Diluted in the KBM501 medium, and left to stand at 4° C. for 3 hours. <6> Diluted in the KBM501 medium containing methylprednisolone, and left to stand at 4° C. for 3 hours, and then at 37° C. for 3 hours. <7> Diluted in the KBM501 medium containing dexamethasone, and left to stand at 4° C. for 3 hours, and then at 37° C. for 3 hours.

O=C(O)CCCc1ccccc1 [4-PBA, 4-phenylbutyric acid]
Viability (highly active NK cells [1]; Exmp. 4, collect. method 1, pretreatment KBM + 10 μM 4-PBA 2 h, thawing PlasmaLyte + IL-2 1 h, then KBM o/n): A (“A” means 70% or higher)
Recovery rate after the thawing (highly active NK cells [2]; pretreatment 2 hours with KBM501 medium supplemented with 30 μM additive before freezing, Example 5): improved
Viability after the thawing (highly active NK cells [2]; treatment with KBM501 supplemented with 10 or 100 μM additive before freezing, viable cells counted after overnight incubation, Example 4): improved

C[S+](C)[O-] [DMSO, dimethyl sulfoxide]
Activity (K562 cells; thawing PlasmaLyte + IL-2, R.T. 1 h): A (A means 70% or higher)
Activity (K562 cells; thawing PlasmaLyte + IL-2, R.T. 1 h, then KBM 2 h): A (A means 70% or higher)
Activity (K562 cells; thawing PlasmaLyte + IL-2, R.T. 3 h): A (A means 70% or higher)
Activity (K562 cells; thawing PlasmaLyte R.T. 1 h): A (A means 70% or higher)
Activity (K562 cells; thawing PlasmaLyte R.T. 1 h, then KBM 2 h): A (A means 70% or higher)
Activity (K562 cells; thawing PlasmaLyte R.T. 3 h): A (A means 70% or higher)

[Cl-].[Cl-].[Mg+2] [MgCl2, Magnesium chloride]
Viability (highly active NK cells [1]; 100 mM as solution used at thawing, cells washed with KBM501 medium, conditions (12-4) and (12-5)): degraded

O=C([O-])[C@H](O)[C@@H](O)[C@H](O)[C@H](O)CO.[Na+] [gluconic acid, sodium gluconate]
Viability of frozen highly active NK cells after thawing (highly active NK cells [1]; added to KBM501 medium used for dilution at thawing (5.02 mg/mL sodium gluconate), 37° C. 3 hours, Example 1): did not show improvement; also recorded: no improvement

Z-VAD
Viability of highly active NK cells after freeze-thawing (optical micrographs) (highly active NK cells [3]): not improved
